These results are taken from PubChem BioAssay (NCI).

Structures are written as SMILES.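 Briefly, cells in 96-well plates were exposed to five compound concentrations for 48 h, and endpoints were estimated by linear interpolation. The concentration for full growth arrest is given as TGI.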 Some results are limits rather than exact numbers.

Some test systems named below: ACHN renal; COLO 205 colon; HS 578T breast; KM12 colon; MDA-MB-231 breast; NCI-H522 lung; SK-MEL-2 melanoma; SK-MEL-5 melanoma; SN12C renal; SNB-19 CNS; SNB-75 CNS; TK-10 renal; U251 CNS; UACC-62 melanoma.
What all share (assay): NCI-60 cell line screen, 48 h

Turning to `CN(C)CCc1c2c(nc3ccccc13)C(=O)c1cccnc1C2=O`, the TGI stood at 1.39 µM in the assay on ACHN renal; 4.91 µM in the assay on COLO 205 colon; 4.15 µM with HS 578T breast; 1.38 µM with KM12 colon; 26.5 µM in the assay with MDA-MB-231 breast; 0.654 µM in the assay with NCI-H522 lung. Besides, the TGI with SK-MEL-2 melanoma was 4.21 µM; in the assay on SK-MEL-5 melanoma it was 0.672 µM; in the assay on SN12C renal, 1.92 µM; in the assay with SNB-19 CNS, 3.88 µM; in the assay with SNB-75 CNS it was 2.29 µM; in the assay on TK-10 renal it was 2.94 µM. Besides, the TGI with U251 CNS came to 4.3 µM; in the assay on UACC-62 melanoma, 0.738 µM.
As for `N#Cc1nc(C#N)n(S(=O)(=O)c2ccccc2)c1NS(=O)(=O)c1ccccc1`, the TGI in the assay on ACHN renal, with COLO 205 colon, in the assay with HS 578T breast, in the assay with KM12 colon, in the assay on MDA-MB-231 breast and with NCI-H522 lung was greater than 100 µM throughout. The TGI with SK-MEL-2 melanoma was greater than 31.6 µM; in the assay on SK-MEL-5 melanoma, greater than 100 µM; with SN12C renal, greater than 100 µM; in the assay on SNB-19 CNS, greater than 100 µM; with SNB-75 CNS it was greater than 100 µM; in the assay with TK-10 renal, greater than 100 µM. Moreover, the TGI with U251 CNS and in the assay with UACC-62 melanoma was greater than 100 µM each time.
Consider `c1ccc(CC2COC(c3cccs3)=N2)cc1` (stereo not given), for which the TGI in the assay with ACHN renal, in the assay with COLO 205 colon, with HS 578T breast, with KM12 colon, with MDA-MB-231 breast and with NCI-H522 lung was greater than 100 µM each time. Besides, the TGI in the assay on SK-MEL-2 melanoma, with SK-MEL-5 melanoma, in the assay with SN12C renal, with SNB-19 CNS, in the assay with SNB-75 CNS and with TK-10 renal was greater than 100 µM each time. Moreover, the TGI in the assay on U251 CNS and in the assay on UACC-62 melanoma was greater than 100 µM each time.
Turning to `CC(C)(CCC(C)(C)N1OC1c1ccccc1)N1OC1c1ccccc1` (stereo not given), the TGI with ACHN renal is 35.8 µM; in the assay with COLO 205 colon, greater than 100 µM; in the assay on HS 578T breast, greater than 100 µM; in the assay with KM12 colon, greater than 100 µM; in the assay on MDA-MB-231 breast, greater than 100 µM; in the assay with NCI-H522 lung, 22.2 µM. The TGI in the assay on SK-MEL-2 melanoma was greater than 100 µM; in the assay with SK-MEL-5 melanoma it was 37.8 µM; in the assay on SN12C renal it was greater than 100 µM; in the assay with SNB-19 CNS it was greater than 100 µM; with SNB-75 CNS, greater than 100 µM; in the assay with TK-10 renal, greater than 100 µM. Also, the TGI in the assay with U251 CNS and in the assay with UACC-62 melanoma was greater than 100 µM throughout.
For `CN(CCCNC(=O)c1cc(-c2ccccc2)nc2ccccc12)CCCNC(=O)c1cc(-c2ccccc2)nc2ccccc12`, the TGI was found to be 7.25 µM in the assay on ACHN renal; 3.14 µM in the assay with COLO 205 colon; 16 µM in the assay with HS 578T breast; 4.75 µM with KM12 colon; 7.93 µM with MDA-MB-231 breast; 3.51 µM in the assay on NCI-H522 lung. Further, the TGI stood at 3.67 µM with SK-MEL-2 melanoma; 3.08 µM with SK-MEL-5 melanoma; 17.4 µM with SN12C renal; 16.7 µM in the assay on SNB-19 CNS; 5.02 µM with SNB-75 CNS; 14.9 µM in the assay on TK-10 renal. For the same compound, the TGI amounted to 4.05 µM with U251 CNS and 4.31 µM in the assay with UACC-62 melanoma.
In the case of `CN=C(Nc1cccc(C(F)(F)F)c1)SCc1ccc(N=C=S)cc1`, the TGI in the assay with ACHN renal was determined as 28.7 µM; with COLO 205 colon, 30.6 µM; with HS 578T breast, 54.2 µM; in the assay on KM12 colon it was 29.3 µM; in the assay with MDA-MB-231 breast it was 32.3 µM; with NCI-H522 lung, 22.4 µM. Moreover, the TGI in the assay on SK-MEL-2 melanoma worked out at 25.6 µM; with SK-MEL-5 melanoma it was 30.1 µM; with SN12C renal, 26.9 µM; in the assay with SNB-19 CNS, 28.1 µM; in the assay with SNB-75 CNS, 28 µM; in the assay on TK-10 renal, 23.5 µM. Besides, the TGI in the assay with U251 CNS came out at 29.8 µM; with UACC-62 melanoma, 24.6 µM.
With `O=C(c1ccco1)N(C(=O)N1CCN(c2ccccc2)CC1)S(=O)(=O)c1ccccc1`, the TGI is 62.7 µM with ACHN renal; 82.4 µM with COLO 205 colon; greater than 100 µM in the assay on HS 578T breast; greater than 100 µM in the assay with KM12 colon; greater than 100 µM in the assay with MDA-MB-231 breast; 41.2 µM in the assay with NCI-H522 lung. The TGI in the assay with SK-MEL-2 melanoma is 37.2 µM; in the assay with SK-MEL-5 melanoma, 68.3 µM; with SN12C renal, 61.9 µM; in the assay with SNB-19 CNS it was 85.2 µM; in the assay with SNB-75 CNS, 62.9 µM; with TK-10 renal, greater than 100 µM. In addition, the TGI with U251 CNS is 72.2 µM; in the assay on UACC-62 melanoma it was 82 µM.
`CC(C)/C(Cl)=N/OC(=O)Nc1ccc(Cl)c(Cl)c1`: the TGI in the assay on ACHN renal was 3.72 µM; in the assay on COLO 205 colon, 3.39 µM; in the assay on HS 578T breast, 54.5 µM; in the assay on KM12 colon, 32.6 µM; in the assay on MDA-MB-231 breast, 30.2 µM; in the assay on NCI-H522 lung, 3.25 µM. Further, the TGI came out at 34.1 µM with SK-MEL-2 melanoma; 27.3 µM in the assay with SK-MEL-5 melanoma; 3.42 µM in the assay on SN12C renal; 50.4 µM in the assay with SNB-19 CNS; 35.3 µM with SNB-75 CNS; 10.9 µM in the assay with TK-10 renal. Further, the TGI amounted to 43.8 µM with U251 CNS and 26.5 µM with UACC-62 melanoma.
For the compound `CCC1C(c2ccccc2O)c2cc3c(cc2OC1N1CCOCC1)OCO3` (stereo not given), the TGI in the assay with ACHN renal worked out at 26 µM; in the assay on COLO 205 colon it was 30.9 µM; with HS 578T breast it was 39.6 µM; in the assay with KM12 colon it was 27.7 µM; in the assay on MDA-MB-231 breast, 33.5 µM; in the assay on NCI-H522 lung, 28 µM. Further, the TGI in the assay with SK-MEL-2 melanoma turned out to be 30.8 µM; with SK-MEL-5 melanoma, 30.5 µM; in the assay with SN12C renal, 29.4 µM; in the assay on SNB-19 CNS it was 28.6 µM; in the assay with SNB-75 CNS, 22.7 µM; in the assay with TK-10 renal, 28 µM. In addition, the TGI amounted to 26.4 µM in the assay with U251 CNS and 27.1 µM in the assay on UACC-62 melanoma.
`O=c1[nH]c(Nc2nc3ccccc3[nH]2)nc(O)c1Cc1ccccc1`: the TGI with ACHN renal, with COLO 205 colon, in the assay on HS 578T breast, in the assay with KM12 colon, with MDA-MB-231 breast and in the assay with NCI-H522 lung was greater than 100 µM in each case. In addition, the TGI with SK-MEL-2 melanoma was greater than 100 µM; with SK-MEL-5 melanoma, greater than 100 µM; in the assay on SN12C renal, greater than 100 µM; in the assay on SNB-19 CNS, greater than 100 µM; with SNB-75 CNS, 86.4 µM; in the assay on TK-10 renal it was greater than 100 µM. Moreover, the TGI with U251 CNS and with UACC-62 melanoma was greater than 100 µM in each case.
